Laboratory results taken from patent US20230076411A1, “LASSO PEPTIDES FOR TREATMENT OF CANCER” (Lassogen, Inc., priority 2020, published 2023).
Positions of bridges follow the written chain, without caps; N, C: chain ends. Non-standard residues stand in square brackets, D forms with d. Residues, ends and D or L forms follow the SMILES beside them. No end group written: not given here. Trp(7-OH) = N[C@@H](Cc1c[nH]c2c(O)cccc12)C(=O)O; 2Nal = N[C@@H](Cc1ccc2ccccc2c1)C(=O)O

T1: endothelin B receptor (ETBR) (Homo sapiens, UniProt P24530)
T1 sequence (P24530 27-442): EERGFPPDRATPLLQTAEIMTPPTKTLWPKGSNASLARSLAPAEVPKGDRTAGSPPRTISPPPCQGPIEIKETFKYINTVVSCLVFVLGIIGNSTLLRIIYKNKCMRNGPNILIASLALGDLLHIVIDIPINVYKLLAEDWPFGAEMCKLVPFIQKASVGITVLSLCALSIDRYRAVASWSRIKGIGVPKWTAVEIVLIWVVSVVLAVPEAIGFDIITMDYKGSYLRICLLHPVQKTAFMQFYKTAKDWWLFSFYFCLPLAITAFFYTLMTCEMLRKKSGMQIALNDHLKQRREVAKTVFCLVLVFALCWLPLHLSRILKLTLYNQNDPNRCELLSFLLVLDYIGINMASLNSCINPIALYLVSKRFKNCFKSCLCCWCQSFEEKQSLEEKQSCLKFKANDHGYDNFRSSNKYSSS

T2: ETBR receptors (Homo sapiens, UniProt P24530)
T2 sequence (P24530 27-442): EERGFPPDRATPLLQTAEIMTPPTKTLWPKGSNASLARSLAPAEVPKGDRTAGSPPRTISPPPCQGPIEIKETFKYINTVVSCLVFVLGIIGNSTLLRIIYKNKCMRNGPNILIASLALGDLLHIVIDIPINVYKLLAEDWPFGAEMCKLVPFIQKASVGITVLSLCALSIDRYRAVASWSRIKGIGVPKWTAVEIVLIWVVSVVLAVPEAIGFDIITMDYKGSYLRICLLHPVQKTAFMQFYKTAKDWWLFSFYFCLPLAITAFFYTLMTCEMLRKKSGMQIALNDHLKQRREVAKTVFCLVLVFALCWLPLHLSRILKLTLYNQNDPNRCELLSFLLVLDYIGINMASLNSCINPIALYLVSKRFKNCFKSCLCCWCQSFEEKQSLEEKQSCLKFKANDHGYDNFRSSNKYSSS

T3: human recombinant ETB receptor (ETBR) (Homo sapiens, UniProt P24530)
T3 construct: expressed in transfected cells; host or cells: CHO cells, stably transfected (vector pME18S-FL3); membranes prepared from them
T3 sequence (P24530 27-442): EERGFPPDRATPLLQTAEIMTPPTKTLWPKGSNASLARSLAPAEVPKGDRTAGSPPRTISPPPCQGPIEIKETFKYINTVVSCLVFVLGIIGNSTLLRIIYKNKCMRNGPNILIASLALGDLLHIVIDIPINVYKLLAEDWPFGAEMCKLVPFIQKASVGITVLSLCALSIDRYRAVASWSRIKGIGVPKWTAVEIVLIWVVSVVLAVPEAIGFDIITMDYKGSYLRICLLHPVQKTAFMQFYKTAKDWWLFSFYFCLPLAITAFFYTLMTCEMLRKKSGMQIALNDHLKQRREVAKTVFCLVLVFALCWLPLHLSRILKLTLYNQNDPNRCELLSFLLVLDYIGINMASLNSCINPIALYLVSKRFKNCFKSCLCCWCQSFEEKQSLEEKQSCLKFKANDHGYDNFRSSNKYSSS

T4: human recombinant endothelin B receptor (ETBR) (human, UniProt P24530 27-442)
T4 construct: whole, on cells; The assay used membranes prepared from CHO-ETBR cells; also called ETB receptor; endothelin receptor type B
T4 sequence (looked up): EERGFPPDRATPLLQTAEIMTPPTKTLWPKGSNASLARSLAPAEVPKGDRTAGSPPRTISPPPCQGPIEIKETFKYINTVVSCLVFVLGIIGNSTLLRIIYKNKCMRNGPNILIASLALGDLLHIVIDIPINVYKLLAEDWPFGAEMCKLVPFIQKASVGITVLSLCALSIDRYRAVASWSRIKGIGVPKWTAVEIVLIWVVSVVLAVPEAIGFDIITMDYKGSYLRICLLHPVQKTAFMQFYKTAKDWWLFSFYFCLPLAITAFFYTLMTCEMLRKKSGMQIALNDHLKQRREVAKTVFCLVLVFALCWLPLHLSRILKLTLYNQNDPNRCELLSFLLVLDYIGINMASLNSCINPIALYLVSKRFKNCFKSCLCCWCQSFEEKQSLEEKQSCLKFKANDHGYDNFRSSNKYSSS


Key:
[1] = tested on: human melanoma cell lines RPMI-7951, SK MEL 28, SK MEL 31, SK MEL 24, A375; test: Melanoma cell growth inhibition (Cell Titer-Glo 2.0 Luminescent Cell Viability Assay); format: cell-based; conditions: 72 hours incubation with compounds
Description: The Cell Titer-Glo® 2.0 Luminescent Cell Viability Assay is a sensitive homogeneous method to determine the number of viable cells in culture. Detection is based on using the luciferase reaction to measure the amount of ATP from viable cells. The amount of ATP in cells correlates with cell viability. Within minutes after a loss of membrane integrity, cells lose the ability to synthesize ATP, and endogenous ATPases destroy any remaining ATP; thus the levels of ATP fall precipitously. The Cell Titer-Glo® 2.0 Reagent does three things upon addition to cells. It lyses cell membranes to release ATP; it inhibits endogenous ATPases, and it provides luciferin, luciferase and other reagents necessary to measure ATP using a bioluminescent reaction. The unique properties of a proprietary stable luciferase. There is a linear relationship (r2=0.99) between the luminescent signal and the number of cells from 0 to 50.000 cells per well. […]
Conditions: 37° C., air 95%; HEPA-filtered carbon dioxide (CO2) 5%, humidified atmosphere. • Cells are grown in 175 cm^2 flasks to 80-90% of confluency. • Culture media are aspirated and cell layer is briefly rinsed with Versen solution to remove all traces of serum. • 2 mL of Accutase is added to cells. • Flasks are returned to incubator for 5 min to allow cell detachment. • Add 6.0 mL of complete growth medium. • Single cell suspension is created by gently pipetting. • Cells are counted using a Hematocytometer and a suspension with the desired cell concentration is prepared. […]
Stock solutions (70 μL) are diluted with cell culture media to produce 500× serial dilutions and 10 of final compound dilutions are added to cells in assay plates to screen a series of 10 doses starting at […]. […] Luminescence intensity is measured for each well using the Tecan M 1000 microplate reader after 5 min of incubation with the Cell Titer-Glo® 2.0. The number of viable cells in culture is determined based on quantitation of the ATP present in each culture well. […] P values are calculated by using the Student's t test for absolute values. […]

[2] = target: endothelin A receptor (ETAR) (Homo sapiens, UniProt P25101); test: ETAR IC50 (nM)
Description: Table printed on a drawing sheet, FIG. 3
Head of the field: ETAR IC50 (nM)

[3] = target: T1, endothelin B receptor (ETBR); test: IC50 of BQ-788 against ETAR and ETBR (FIG. 3B); format: binding; conditions: from IC50 against ETAR and ETBR
[4] = target: human recombinant endothelin B receptor (ETBR) (human) (UniProt P24530); test: not stated on the sheet or in the legend; the receptor source, species and competing ligand are not given, and the value may come from the literature
[5] = target: T2, ETBR receptors; conditions: physiological concentrations; cited from earlier work
[6] = target: T3, human recombinant ETB receptor (ETBR); test: ET-1 Receptor Binding Assay ([125I]ET-1, CHO cell membranes expressing ETBR)
Experimental: Preparation of Membranes. CHO cell membranes are prepared by washing ETAR- or ETBR-transfected cells with phosphate buffered saline and centrifugation. […] The homogenates are centrifuged at 8,000×g for 10 minutes and supernatants are then centrifuged at 40,000×g for 1 hour at 4° C. The pellets are homogenized in buffer A and recentrifuged at 40,000×g for 1 hour.
(§1) The glass filters are washed three times with cold 50 mM Tris-HCl buffer containing 1 mM EDTA. The radioactivity on the washed filter is measured by using a Packard γ counter.

[7] = target: T4, human recombinant endothelin B receptor …; test: displacement of [125I]ET-1 from CHO-ETBR membranes, filtration
Experimental: Preparation of Membranes. CHO cell membranes are prepared by washing ETAR- or ETBR-transfected cells with phosphate buffered saline and centrifugation. The resulting cell pellets are homogenized with a polytron (settings 8 for 30 seconds×2) in 5 volumes of buffer A containing 1 mM NaHCO₃, 5 mM EDTA (pH 8.3), 5 μg/ml Leupeptin, 5 μg/ml Pepstatin A, and 40 μM phenylmethylsulfonyl fluoride. The homogenates are centrifuged at 8,000×g for 10 minutes and supernatants are then centrifuged at 40,000×g for 1 hour at 4° C. The pellets are homogenized in buffer A and recentrifuged at 40,000×g for 1 hour. The resulting pellets are homogenized in buffer A supplemented with 130 mM NaCl, 5 mM Na₂HPO₄, and 1.5 mM KH₂PO₄ and stored at −70° C.
as §1

Molecule	IC50 [7] [nM]	growth of all tested human melanoma cell lines [1]	further results
CC(C)C[C@@H]1NC(=O)[C@@H](C(C)C)NC(=O)[C@@H]2CCCN2C(=O)[C@@H](CC(=O)O)NC(=O)[C@@H](Cc2c[nH]c3ccccc23)NC1=O [BQ-123] (cyclo(L[dW][dD]P[dV]))	–	not	–
CCCC[C@@H](NC(=O)[C@@H](Cc1cn(C(=O)OC)c2ccccc12)NC(=O)[C@H](CC(C)(C)C)NC(=O)N1[C@H](C)CCC[C@@H]1C)C(=O)O [BQ-788]	–	inhibited	IC50 [2]: 280 nM; binding selectivity ETBR over ETAR [3]: selectively binds to ETBR over ETAR
BQ-788 (peptide)	–	–	IC50 [4]: 1.2 nM
ET-2: cognate endothelin ligand, 21-amino acid peptide (CSCSSWLDKECVYFCHLDIIW; ends and bridges not checked; cysteine pairing not given here; UniProt P20800 49-69, looked up)	–	–	Kd [5]: 0.015 nM
GNWHGTAPDWFFNYYW [Lasso 1]	–	inhibited	–
MTEQSEQTPAEYIPPMLVEVGEFTEDTLGNWHGTAPDWFFNYYW [Lasso 18]	–	–	IC50 [6]: > 5000 nM
MTEQSEQTPAEYIPPMLVEVGEFTEDTLGNWHGTSPDWFFNYYW [Lasso 20]	–	–	IC50 [6]: > 5000 nM
GNWHGTAPDWFFNYYNIIW (lactam N-9, also called Lasso 48) [lasso peptide having primary sequence of SEQ ID NO: 48]	> 70	–	–

Further lines, with some results ahead:

IC50 [7] [nM]	Molecule	growth of all tested human melanoma cell lines [1]	further results
6.3	GNWHGTAPDWFFNYY[2Nal] (lactam N-9, also called Lasso 54) [lasso peptide having primary sequence of SEQ ID NO: 54]	–	–
8	GNWHGTSPDWFFNYY[Trp(7-OH)] (lactam N-9, also called Lasso 4) [lasso peptide having primary sequence of SEQ ID NO: 4]	–	–
